In patent EP1190708A1, “Medical use of substances” (Tinnitus Forschungs- und Entwicklungs GmbH, priority 2000, dated 2002):

How the values were obtained:
[1] = test system: inhibitory postsynaptic currents (IPSC) in outer hair cells; assay: Voltage-clamp recording of inhibitory postsynaptic currents in outer hair cells of the organ of Corti preparation; format: cell-based, Wistar rats; parameters: inhibition of postsynaptic currents (reversibility): dose or concentration left out as unconfirmed
Description: Organs of Corti were dissected from the cochleae of Wistar rats (11-24 days old) as described previously (Oliver, D. and Fakler, B. 1999. J. Physiol. (Lond.) 519 pt. 3, 791-800; Oliver, D., Klöcker, N., Schluck, J., Baukrowitz, T., Rup-persberg, J.P. and Fakler, B. 2000. Neuron 26, 591-601). The electrophysiology on OHCs was also described previously (Oliver, D. et al., 2000, see above).
(§1) In Fig 1B, postsynaptic currents were recorded from OHCs in voltage-clamp experiments when cells were held at -64 mV and the whole Corti preparation was superfused with high extracellular K^+ (150 mM) to depolarize the presynapse. Application of high K^+ and toxins as indicated by horizontal bars: current and time scaling as indicated.
as §1, with “3,” for “1B,”, “outer hair cells (OHCs)” for “OHCs”, “K^+” for “K^+ (150 mM)”, “indicated. […] This dose-dependent response determined for the IPSC in OHCs is illustrated in Fig. 3B.” for “indicated.”

[2] = biological target: T1, alpha9/alpha10 heteromeric acetylcholine receptors expressed in Xenopus oocytes (Rattus norvegicus, UniProt P43144+Q9JLB5); assay: Voltage-clamp recording of current responses to acetylcholine in oocytes expressing alpha9/alpha10 subunits; format: cell-based
T1 construct: expressed in transfected cells; host or cells: Xenopus laevis oocytes injected with in vitro synthesised mRNA
T1 sequence (P43144 26-479): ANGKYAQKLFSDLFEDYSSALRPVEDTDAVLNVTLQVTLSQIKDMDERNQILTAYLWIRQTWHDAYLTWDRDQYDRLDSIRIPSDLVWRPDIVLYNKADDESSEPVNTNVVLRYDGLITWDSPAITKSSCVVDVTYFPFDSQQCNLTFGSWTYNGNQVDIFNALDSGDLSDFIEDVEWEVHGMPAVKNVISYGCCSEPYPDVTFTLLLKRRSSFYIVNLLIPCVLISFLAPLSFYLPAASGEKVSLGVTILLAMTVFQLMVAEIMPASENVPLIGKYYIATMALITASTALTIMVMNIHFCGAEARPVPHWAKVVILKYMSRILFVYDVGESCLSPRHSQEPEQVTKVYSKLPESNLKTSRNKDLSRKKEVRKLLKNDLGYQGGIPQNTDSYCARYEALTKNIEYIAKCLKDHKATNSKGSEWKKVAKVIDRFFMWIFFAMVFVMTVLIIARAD
T1 sequence (Q9JLB5 25-447): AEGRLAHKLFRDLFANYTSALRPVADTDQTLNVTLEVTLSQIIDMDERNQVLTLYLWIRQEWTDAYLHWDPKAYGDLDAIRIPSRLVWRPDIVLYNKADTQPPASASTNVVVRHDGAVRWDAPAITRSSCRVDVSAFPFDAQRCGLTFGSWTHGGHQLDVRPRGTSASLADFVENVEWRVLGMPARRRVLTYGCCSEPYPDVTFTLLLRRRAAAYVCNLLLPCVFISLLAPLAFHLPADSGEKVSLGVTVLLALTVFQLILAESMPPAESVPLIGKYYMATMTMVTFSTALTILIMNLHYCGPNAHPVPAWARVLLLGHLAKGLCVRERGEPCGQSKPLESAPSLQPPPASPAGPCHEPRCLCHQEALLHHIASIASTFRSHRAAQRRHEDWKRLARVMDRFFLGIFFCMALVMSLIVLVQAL
Description: In vitro mRNA synthesis and oocyte injections were performed as previously described (Fakler, B., Brandle, U., Glowatzki, E., Weidemann, S., Zenner, H.P. and Ruppersberg, J.P. 1995. Cell 80, 149-154; Oliver, D. et al., 2000, see above). The electrophysiology on oocytes was also performed as described previously (Oliver, D. et al., 2000, see above).
For further characterization of strychnine treatment on the nAChR, the mRNA of alpha9/alpha10 subunits of the acetylcholine receptor were injected in oocytes of Xexopus laevis.
After expression of these subunits, they were investigated by treatment with strychnine in voltage-clamp experiment. The cells were held at -30 mV. Current and time scaling are as indicated. As is shown in Fig. 2, similar results were obtained as in Fig. 1. Consistent with the model shown above, the current responses at the acetylcholine receptor could be blocked reversibly by application with the acetylcholine blocker strychnine.
For further characterization of memantine treatment on the neuronal acetylcholine receptor (nAChR), the mRNA of alpha9-/alpha10 subunits of the acetylcholine receptor were injected in oocytes of Xexopus laevis. After expression of that subunits, these subunits were investigated by treatment with memantine in voltage-clamp experiment. The cells were held at -30 mV. Current and time scaling are as indicated. As is shown in Fig. 4, similar results were obtained as in Fig. 3. In this experiment the polarization potential of the cells was meassured after application of 100 µM acetylcholine in the presence or absence of memantine. Consistent with the results obtained in Fig. 3, the current responses at the acetylcholine receptor could be blocked by application with memantine. A halfmaximal inhibition occurs at concentrations of approximately 1 µM, as is illustrated in Figur 4B.

| SMILES | inhibition of postsynaptic currents (reversibility) ([1]; OHCs held at -64 mV, dose-dependent response, Fig. 3) | IC50 ([1]; Rattus norvegicus, iPSC, OHCs held at -64 mV, high extracellular K+, Fig. 3B) | IC50 [2] | complete inhibition of postsynaptic currents at (concentration) [1] | complete inhibition of current responses at the acetylcholine receptor at (concentration) [2] | reversibility of block of the receptor [2] |
| --- | --- | --- | --- | --- | --- | --- |
| CC12CC3CC(C)(C1)CC(N)(C3)C2 [memantine] | reversibly inhibited | ~16.6 µM | ~1 µM |  |  |  |
| O=C1C[C@@H]2OCC=C3CN4CC[C@]56c7ccccc7N1[C@H]5[C@H]2[C@H]3C[C@H]46 [strychnine] |  |  |  | 100 nM | 1 µM | reversible block of the receptor |
